# Data: patent US20130310256A1, “HERBICIDAL COMPOSITIONS COMPRISING 4-AMINO-3-CHLORO-5-FLUORO-6-(4-CHLORO-2-FLUORO-3-METHOXYPHENYL) PYRIDINE-2-CARBOXYLIC ACID OR A DERIVATIVE THEREOF AND VLCFA AND LIPID SYNTHESIS INHIBITING HERBICIDES” (DOW AGROSCIENCES LLC, priority 2008, published 2013)
# How the values were obtained:
# BRAPP = experiment: Example I: postemergence foliar-applied weed control, direct seeded rice weeds, greenhouse; format: in vivo; settings: foliar
# Text: Seeds or nutlets of the desired test plant species were planted in a soil matrix prepared by mixing a loam or sandy loam soil (e.g., 28.6 percent silt, 18.8 percent clay, and 52.6 percent sand, with a pH of about 5.8 and an organic matter content of about 1.8 percent) and calcareous grit in an 80 to 20 ratio. The soil matrix was contained in plastic pots with a volume of 1 quart and a surface area of 83.6 square centimeters (cm^2). When required to ensure good germination and healthy plants, a fungicide treatment and/or other chemical or physical treatment was applied. The plants were grown for 8-22 days in a greenhouse with an approximate 14 hr photoperiod which was maintained at about 29° C. during the day and 26° C. during the night. Nutrients (Peters Excel® 15-5-15 5-Ca 2-Mg and iron chelate) were applied in the irrigation solution as needed and water was added on a regular basis. Supplemental lighting was provided with overhead metal halide 1000-Watt lamps as necessary. The plants were employed for testing when they reached the first through fourth true leaf stage.
# Treatments consisted of the acid or esters of 4-amino-3-chloro-5-fluoro-6-(4-chloro-2-fluoro-3-methoxy-phenyl)pyridine-2-carboxylic acid (Compound A), each formulated as an SC (suspension concentrate), and various herbicidal components alone and in combination. Forms of compound A were applied on an acid equivalent basis.
# Other herbicidal components were applied on an active ingredient basis and included very long chain fatty acid (VLCFA) synthesis-inhibiting and fatty acid/lipid synthesis-inhibiting herbicides acetochlor (technical grade material), acetochlor+dichlormid formulated as Topnotch®, pretilachlor (technical grade material), butachlor formulated as Butachlor EC, fentrazamide formulated as Fentrazamide EC, thiobencarb formulated as Bolero® 8EC, cafenstrole formulated as Himeadow® WP or Lapost® Flowable, benfuresate formulated as Full Shot®, dimethenamid-P formulated as Outlook®, indanofan (technical grade material), flufenacet formulated as Define® DF, mefenacet (technical grade material), S-metolachlor formulated as Dual® II Magnum, pethoxamid formulated as Successor® 600, and pyroxasulfone (technical grade material).
# Treatment requirements were calculated based upon the rates being tested, the concentration of active ingredient or acid equivalent in the formulation, and a 12 mL application volume at a rate of 187 L/ha.
# For treatments comprised of formulated compounds, measured amounts of compounds were placed individually in 25 mL glass vials and diluted in a volume of 1.25% (v/v) Agri-Dex® crop oil concentrated to obtain 12× stock solutions. […] Application solutions were prepared by adding an appropriate amount of each stock solution (e.g., 1 mL) and diluted to the appropriate final concentrations with the addition of 10 mL of an aqueous mixture of 1.25% (v/v) crop oil concentrate so that the final spray solutions contained 1.25+/−0.05% (v/v) crop oil concentrate.
# For treatments comprised of technical compounds, weighed amounts can be placed individually in 25 mL glass vials and dissolved in a volume of 97:3 v/v acetone/DMSO to obtain 12× stock solutions. […] Application solutions can be prepared by adding an appropriate amount of each stock solution (e.g., 1 mL) and diluted to the appropriate final concentrations with the addition of 10 mL of an aqueous mixture of 1.5% (v/v) crop oil concentrate so that the final spray solutions contain 1.25% (v/v) crop oil concentrate. When technical materials are used, the concentrated stock solutions can be added to the spray solutions so that the final acetone and DMSO concentrations of the application solutions are […], respectively. […]
# CHEAL = experiment: Example III: post-emergence foliar-applied weed control in cereal crops, greenhouse; format: in vivo, Chenopodium album L.; settings: 21 DAA
# Method: (§1) Seeds of the desired test plant species were planted in Sun Gro MetroMix® 306 planting mixture, which typically has a pH of 6.0 to 6.8 and an organic matter content of about 30 percent, in plastic pots with a surface area of 103.2 square centimeters (cm^2). When required to ensure good germination and healthy plants, a fungicide treatment and/or other chemical or physical treatment was applied. The plants were grown for 7-36 days in a greenhouse with an approximate 14 hour photoperiod which was maintained at about 18° C. during the day and 17° C. during the night. Nutrients and water were added on a regular basis and supplemental lighting was provided with overhead metal halide 1000-Watt lamps as necessary. The plants were employed for testing when they reached the second or third true leaf stage.
# (§2) Treatments consisted of the benzyl ester of 4-amino-3-chloro-5-fluoro-6-(4-chloro-2-fluoro-3-methoxy-phenyl)pyridine-2-carboxylic acid (Compound A), formulated as an SC (suspension concentrate), and a second cereal herbicide alone and in combination.
# (§3) Measured aliquots of the benzyl ester of 4-amino-3-chloro-5-fluoro-6-(4-chloro-2-fluoro-3-methoxy-phenyl)pyridine-2-carboxylic acid (Compound A) were placed in 25 milliliter (mL) glass vials and diluted in a volume of 1.25% (v/v) Agri-dex crop oil concentrated to obtain stock solutions. Compound requirements are based upon a 12 mL application volume at a rate of 187 liters per hectare (L/ha). Spray solutions of the second cereal herbicide and experimental compound mixtures were prepared by adding the stock solutions to the appropriate amount of dilution solution to form 12 mL spray solution with active ingredients in two- and three-way combinations. Formulated compounds were applied to the plant material with an overhead Mandel track sprayer equipped with an 8002E nozzle calibrated to deliver 187 L/ha over an application area of 0.503 square meters (m^2) at a spray height of 18 inches (46 cm) above average plant canopy. Control plants were sprayed in the same manner with the solvent blank.
# (§4) The treated plants and control plants were placed in a greenhouse as described above and watered by sub-irrigation to prevent wash-off of the test compounds. After 20-22 days, the condition of the test plants as compared with that of the control plants was determined visually and scored on a scale of 0 to 100 percent where 0 corresponds to no injury and 100 corresponds to complete kill.
# (§5) Colby's equation was used to determine the herbicidal effects expected from the mixtures (Colby, S. R. 1967. Calculation of the synergistic and antagonistic response of herbicide combinations. Weeds 15:20-22.).
# CIRAR = experiment: as above; format: in vivo, Cirsium arvense (L.) Scop.; settings: 21 DAA
# Method: as §1, §2, §3, §4, §5
# KCHSC = experiment: as above; format: in vivo, Kochia scoparia (L.) Schrad.; settings: 21 DAA
# Method: as §1, §2, §3, §4, §5
# PAPRH = experiment: as above; format: in vivo, Papaver rhoeas L.; settings: 21 DAA
# Method: as §1, §2, §3, §4, §5
# SASKR = experiment: as above; format: in vivo, Salsola tragus L.; settings: 21 DAA
# Method: as §1, §2, §3, §4, §5
# SINAR = experiment: as above; format: in vivo, Sinapis arvensis L.; settings: 21 DAA
# Method: as §1, §2, §3, §4, §5
# STEME = experiment: as above; format: in vivo, Stellaria media (L.) Vill.; settings: 21 DAA
# Method: as §1, §2, §3, §4, §5
# GALAP = experiment: as above; format: in vivo, Galium aparine L.; settings: 21 DAA
# Method: as §1, §2, §3, §4, §5
compound,measurement,setting,value
"CC(C)N(C(=O)COc1nnc(C(F)(F)F)s1)c1ccc(F)cc1 [Flufenacet, N-(4-fluorophenyl)-N-(1-methylethyl)-2-[[5-(trifluoromethyl)-1,3,4-thiadiazol-2-yl]oxy]acetamide]",Visual Weed Control (%) - 22 DAA BRAPP Obs,BRAPP; 187.5 gai/ha,10%
same,Visual Weed Control (%) - 22 DAA BRAPP Obs,BRAPP; 375 gai/ha,20%
same,Visual Weed Control (%) - 22 DAA BRAPP Obs,BRAPP; 750 gai/ha,40%
same,Visual Weed Control CHEAL Obs,CHEAL; 60 gai/ha,0%
same,Visual Weed Control CHEAL Obs,CHEAL; 120 gai/ha,0%
same,Visual Weed Control CIRAR Obs,CIRAR; 60 gai/ha,0%
same,Visual Weed Control CIRAR Obs,CIRAR; 120 gai/ha,0%
same,Visual Weed Control CIRAR Obs,CIRAR; 240 gai/ha,17%
same,Visual Weed Control KCHSC Obs,KCHSC; 60 gai/ha,5%
same,Visual Weed Control KCHSC Obs,KCHSC; 120 gai/ha,5%
same,Visual Weed Control KCHSC Obs,KCHSC; 240 gai/ha,17%
same,Visual Weed Control PAPRH Obs,PAPRH; 60 gai/ha,0%
same,Visual Weed Control PAPRH Obs,PAPRH; 120 gai/ha,5%
same,Visual Weed Control PAPRH Obs,PAPRH; 240 gai/ha,7%
same,Visual Weed Control SASKR Obs,SASKR; 60 gai/ha,5%
same,Visual Weed Control SASKR Obs,SASKR; 120 gai/ha,5%
same,Visual Weed Control SASKR Obs,SASKR; 240 gai/ha,13%
same,Visual Weed Control SINAR Obs,SINAR; 60 gai/ha,5%
same,Visual Weed Control SINAR Obs,SINAR; 120 gai/ha,8%
same,Visual Weed Control STEME Obs,STEME; 60 gai/ha,0%
same,Visual Weed Control STEME Obs,STEME; 120 gai/ha,5%
same,Visual Weed Control STEME Obs,STEME; 240 gai/ha,42%
"CCCN(CCC)C(=O)SCc1ccccc1 [Prosulfocarb, S-(phenylmethyl) dipropylcarbamothioate]",Visual Weed Control CHEAL Obs,CHEAL; 1000 gai/ha,10%
same,Visual Weed Control CHEAL Obs,CHEAL; 2000 gai/ha,15%
same,Visual Weed Control GALAP Obs,GALAP; 1000 gai/ha,15%
same,Visual Weed Control GALAP Obs,GALAP; 2000 gai/ha,40%
same,Visual Weed Control GALAP Obs,GALAP; 4000 gai/ha,67%
same,Visual Weed Control KCHSC Obs,KCHSC; 1000 gai/ha,10%
same,Visual Weed Control KCHSC Obs,KCHSC; 2000 gai/ha,15%
same,Visual Weed Control KCHSC Obs,KCHSC; 4000 gai/ha,75%
same,Visual Weed Control PAPRH Obs,PAPRH; 1000 gai/ha,5%
same,Visual Weed Control PAPRH Obs,PAPRH; 2000 gai/ha,10%
same,Visual Weed Control PAPRH Obs,PAPRH; 4000 gai/ha,13%
same,Visual Weed Control SASKR Obs,SASKR; 1000 gai/ha,5%
same,Visual Weed Control SASKR Obs,SASKR; 2000 gai/ha,5%
same,Visual Weed Control SASKR Obs,SASKR; 4000 gai/ha,63%
same,Visual Weed Control SINAR Obs,SINAR; 1000 gai/ha,13%
same,Visual Weed Control SINAR Obs,SINAR; 2000 gai/ha,18%
same,Visual Weed Control STEME Obs,STEME; 1000 gai/ha,0%
same,Visual Weed Control STEME Obs,STEME; 2000 gai/ha,10%
same,Visual Weed Control STEME Obs,STEME; 4000 gai/ha,73%
